Results reported in PubChem BioAssay AID248 (DTP/NCI, 2004).
Inconclusive results and toxic doses are left out. Rule as the data show it: active = T/C of 150% or more; inactive = T/C below 125%.

System: L1210 leukemia ip in BDF1 mice, survival T/C
Assay: NCI In Vivo Anticancer Drug Screen. Data for tumor model L1210 Leukemia (intraperitoneal) in B6D2F1 (BDF1) mice
Details: endpoint: mean survival time, higher = longer survival
Summary of the method: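 Ratio derived from survival: compound-dosed mice over vehicle-dosed mice, all bearing a transplantable tumor.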

Measured: T/C

CN(Cc1cnc2nc(N)nc(N)c2n1)c1c(Cl)cc(C(=O)NC(CCC(=O)O)C(=O)O)cc1Cl (stereo not drawn)
active: dose: 3.0 mg/kg/injection, schedule: Q01DX Z (ip), vehicle: carboxymethylcellulose (CMC) 159 % of control | dose: 3.0 mg/kg/injection, schedule: Q01DX Z (ip), vehicle: saline 169 % of control | dose: 5.0 mg/kg/injection, schedule: Q#A X Z (ip), vehicle: methylcellulose (MC) 162 % of control | dose: 6.0 mg/kg/injection, schedule: Q01DX Z (ip), vehicle: carboxymethylcellulose (CMC) 161 % of control | dose: 9.0 mg/kg/injection, schedule: Q01DX Z (ip), vehicle: clinical formulation 157 % of control | dose: 10.0 mg/kg/injection, schedule: Q01DX Z (im), vehicle: alkali diluted with saline 159 % of control | dose: 10.0 mg/kg/injection, schedule: Q01DX Z (ip), vehicle: saline 167 % of control | dose: 10.0 mg/kg/injection, schedule: Q01DX Z (sc), vehicle: alkali diluted with saline 159 % of control | dose: 20.0 mg/kg/injection, schedule: Q01DX007 (ip), vehicle: other 160 % of control | dose: 20.0 mg/kg/injection, schedule: Q01DX009 (ip), vehicle: carboxymethylcellulose (CMC) 153 % of control | dose: 30.0 mg/kg/injection, schedule: Q01DX Z (ip), vehicle: carboxymethylcellulose (CMC) 159 % of control | dose: 40.0 mg/kg/injection, schedule: Q01DX007 (ip), vehicle: other 163 % of control
inactive: dose: 0.05 mg/kg/injection, schedule: Q03HX024 (ip), vehicle: alkali diluted with saline 108 % of control | dose: 0.12 mg/kg/injection, schedule: Q01DX Z (ip), vehicle: saline 103 % of control | dose: 0.2 mg/kg/injection, schedule: Q03HX024 (ip), vehicle: alkali diluted with saline 121 % of control | dose: 0.31 mg/kg/injection, schedule: Q03HX008 (ip), vehicle: carboxymethylcellulose (CMC) 114 % of control | dose: 0.39 mg/kg/injection, schedule: Q03HX024 (ip), vehicle: carboxymethylcellulose (CMC) 111 % of control | dose: 0.5 mg/kg/injection, schedule: Q01DX Z (ip), vehicle: saline 106 % of control | dose: 0.5 mg/kg/injection, schedule: Q01DX Z (sc), vehicle: alkali diluted with saline 102 % of control | dose: 0.6 mg/kg/injection, schedule: Q## X008 (ip), vehicle: alkali diluted with saline 106 % of control | dose: 0.63 mg/kg/injection, schedule: Q03HX008 (ip), vehicle: carboxymethylcellulose (CMC) 119 % of control | dose: 0.78 mg/kg/injection, schedule: Q03HX024 (ip), vehicle: carboxymethylcellulose (CMC) 114 % of control | dose: 1.0 mg/kg/injection, schedule: Q01DX Z (im), vehicle: alkali diluted with saline 107 % of control | dose: 1.0 mg/kg/injection, schedule: Q01DX Z (ip), vehicle: saline 122 % of control | dose: 1.0 mg/kg/injection, schedule: Q01DX Z (sc), vehicle: alkali diluted with saline 95 % of control | dose: 2.5 mg/kg/injection, schedule: Q01DX005 (ip), vehicle: carboxymethylcellulose (CMC) 117 % of control | dose: 2.5 mg/kg/injection, schedule: Q01DX Z (im), vehicle: alkali diluted with saline 102 % of control | dose: 2.5 mg/kg/injection, schedule: Q01DX Z (sc), vehicle: alkali diluted with saline 106 % of control | dose: 4.0 mg/kg/injection, schedule: Q## X008 (ip), vehicle: alkali diluted with saline 104 % of control | dose: 5.0 mg/kg/injection, schedule: Q01DX005 (ip), vehicle: carboxymethylcellulose (CMC) 120 % of control | dose: 5.0 mg/kg/injection, schedule: Q01DX009 (ip), vehicle: carboxymethylcellulose (CMC) 121 % of control | dose: 5.0 mg/kg/injection, schedule: Q01DX009 (sc), vehicle: carboxymethylcellulose (CMC) 115 % of control | dose: 5.0 mg/kg/injection, schedule: Q01DX Z (im), vehicle: alkali diluted with saline 112 % of control | dose: 5.0 mg/kg/injection, schedule: Q01DX Z (oral), vehicle: alkali diluted with saline 120 % of control | dose: 5.0 mg/kg/injection, schedule: Q01DX Z (sc), vehicle: alkali diluted with saline 105 % of control | dose: 6.25 mg/kg/injection, schedule: Q03HX024 (ip), vehicle: carboxymethylcellulose (CMC) 116 % of control | dose: 10.0 mg/kg/injection, schedule: Q01DX006 (iv), vehicle: alkali diluted with saline 106 % of control | dose: 10.0 mg/kg/injection, schedule: Q01DX Z (oral), vehicle: alkali diluted with saline 120 % of control | dose: 12.5 mg/kg/injection, schedule: Q03HX024 (ip), vehicle: carboxymethylcellulose (CMC) 122 % of control | dose: 15.0 mg/kg/injection, schedule: Q## X008 (ip), vehicle: alkali diluted with saline 114 % of control | dose: 20.0 mg/kg/injection, schedule: Q01DX006 (iv), vehicle: alkali diluted with saline 123 % of control | dose: 20.0 mg/kg/injection, schedule: Q01DX Z (oral), vehicle: alkali diluted with saline 115 % of control | dose: 20.0 mg/kg/injection, schedule: Q#A X Z (ip), vehicle: olive oil, sesame oil, peanut oil 116 % of control | dose: 25.0 mg/kg/injection, schedule: Q04DX003 (ip), vehicle: alkali diluted with saline 112 % of control | dose: 25.0 mg/kg/injection, schedule: Q04DX003 (ip), vehicle: carboxymethylcellulose (CMC) 117 % of control | dose: 25.0 mg/kg/injection, schedule: Q## X003 (ip), vehicle: other 106 % of control | dose: 25.0 mg/kg/injection, schedule: Q## X016 (ip), vehicle: other 115 % of control | dose: 30.0 mg/kg/injection, schedule: Q03DX Z (ip), vehicle: methylcellulose (MC) 122 % of control
